The record followed here is US20050080113A1, “Medicinal compositions” (priority 2001, published 2005).

Each structure is given as a SMILES string.

Broadly, the melting point is the temperature of the solid-liquid transition.

As for `CCC(=O)Nc1cc(-c2sc(C3CCN(C)CC3)nc2-c2cccc(Cl)c2)ccn1.Cl.Cl`, the melting point was 350 to 351 °C. In the case of `Cc1cccc(-c2nc(NC(=O)NCCCl)sc2-c2ccnc(C)c2)c1` it was 149 to 151 °C; in that of `CC(=O)Nc1cc(-c2sc(C3CCNCC3)nc2-c2cccc(Cl)c2)ccn1.Cl.Cl`, 193 to 195 °C.

On to `CCC(=O)Nc1cc(-c2sc(C3CCNCC3)nc2-c2cccc(Cl)c2)ccn1.Cl.Cl`, for which the melting point lay in the range of 202 to 203 °C.

For `CCc1nc(-c2cccc(Cl)c2)c(-c2ccnc(N[C@@H](C)c3ccccc3)c2)s1.Cl`, the melting point was in the range of 165 to 166 °C. In the case of `COc1ccc(-c2nc(N)sc2-c2ccncc2)cc1` [13-14, [4-(4-methoxyphenyl)-5-(4-pyridyl)-1,3-thiazol-2-yl]amine] it was 282 to 284 °C. Next, `Nc1nc(-c2ccccc2)c(-c2ccncc2)s1` [13-15, [4-phenyl-5-(4-pyridyl)-1,3-thiazol-2-yl]amine]: 248 to 250 °C; `Cc1cc(C)cc(-c2nc(N)sc2-c2ccncc2)c1` [23-133, [4 (3,5 dimethylphenyl)-5 (4 pyridyl)-1,3 thiazol-2 yl]amine]: 242 to 244 °C; `CC(=O)Nc1nc(-c2ccc(C(C)(C)C)cc2)c(-c2ccncc2)s1` [23-137, N-[4 [4 (1,1 dimethylethyl)phenyl]-5 (4 pyridyl)-1,3 thiazol-2 yl]acetamide]: 280 to 281 °C.

`CC(C)(C)c1ccc(-c2nc(N)sc2-c2ccncc2)cc1` [23-143, [4 [4 (1,1 dimethylethyl)phenyl]-5 (4 pyridyl)-1,3 thiazol-2-yl]amine] came in with a melting point of 254 to 257 °C. Next, `CC(C)(C)c1ccc(-c2nc(NC(=O)c3ccccc3)sc2-c2ccncc2)cc1` [23-164, N-[4 [4 (1,1 dimethylethyl)phenyl]-5 (4 pyridyl)-1,3 thiazol-2 yl]benzamide]: 292 to 294 °C. Next, `CC(C)(C)c1ccc(-c2nc(NC(=O)c3cccnc3)sc2-c2ccncc2)cc1` [23-165, N-[4 [4 (1,1 dimethylethyl)phenyl]-5 (4 pyridyl)-1,3 thiazol-2 yl]nicotinamide]: 326 to 328 °C; `CC(C)(C)c1ccc(-c2nc(NC(=O)C3CCCC3)sc2-c2ccncc2)cc1` [23-168, N-[4 [4 (1,1 dimethylethyl)phenyl]-5 (4 pyridyl)-1,3 thiazol-2 yl]cyclopentanecarboxamide]: 309 to 311 °C; `CCC(=O)Nc1nc(-c2cc(C)cc(C)c2)c(-c2ccncc2)s1` [23-194, N-[4 (3,5 dimethylphenyl)-5 (4 pyridyl)-1,3 thiazol-2-yl]propionamide]: 291 to 293 °C. Regarding `Cc1cc(C)cc(-c2nc(NC(=O)C(C)C)sc2-c2ccncc2)c1` [23-195, N-[4 (3,5 dimethylphenyl)-5 (4 pyridyl)-1,3 thiazol-2 yl]-2-methylpropionamide], the melting point fell in the range of 270 to 272 °C.

As for `Cc1cc(C)cc(-c2nc(NC(=O)Cc3ccccc3)sc2-c2ccncc2)c1` [23-196, N-[4 (3,5 dimethylphenyl)-5 (4 pyridyl)-1,3 thiazol-2 yl]-2-phenylacetamide], the melting point was 226 to 229 °C. Take `Cc1cc(C)cc(-c2nc(NC(=O)c3ccccc3)sc2-c2ccncc2)c1` [23-197, N-[4 (3,5 dimethylphenyl)-5 (4 pyridyl)-1,3 thiazol-2-yl]benzamide]: the melting point fell in the range of 285 to 286 °C. Next, `Cc1cc(C)cc(-c2nc(NC(=O)C3CCCC3)sc2-c2ccncc2)c1` [23-198, N-[4 (3,5 dimethylphenyl)-5 (4 pyridyl)-1,3 thiazol-2-yl]cyclopentanecarboxamide]: 275 to 278 °C; `Cc1cc(C)cc(-c2nc(NC(=O)c3cccnc3)sc2-c2ccncc2)c1` [23-199, N-[4 (3,5 dimethylphenyl)-5 (4 pyridyl)-1,3 thiazol-2-yl]nicotinamide]: 267 to 270 °C.

For `CCNC(=O)Nc1nc(-c2cc(C)cc(C)c2)c(-c2ccncc2)s1` [23-201, N-[4 (3,5 dimethylphenyl)-5 (4 pyridyl)-1,3 thiazol-2 yl]-N′-ethylurea], the melting point was in the range of 202 to 203 °C. Next, `CCCNC(=O)Nc1nc(-c2cc(C)cc(C)c2)c(-c2ccncc2)s1` [23-202, N-[4 (3,5 dimethylphenyl)-5 (4 pyridyl)-1,3 thiazol-2 yl]-N′-propylurea]: 128 to 130 °C; `Cc1cc(C)cc(-c2nc(NC(=O)c3cnccn3)sc2-c2ccncc2)c1` [23-246, N-[4 (3,5 dimethylphenyl)-5 (4 pyridyl)-1,3 thiazol-2-yl]pyrazinecarboxamide]: 269 to 270 °C; `Cc1cccc(-c2nc(-c3ccc(F)cc3)sc2-c2ccnc(NC(=O)Cc3ccccc3)c2)c1` [D 14, N-[4-[2-(4-fluorophenyl)-4-(3-methylphenyl)-1,3-thiazol-5-yl]-2-pyridyl]phenylacetamide]: 187 to 190 °C. In the case of `COc1ccc(-c2nc(C)sc2-c2ccnc(NC(=O)Cc3ccccc3)c2)cc1` [D 15-1, N-[4 [4 (4 methoxyphenyl)-2 methyl-1,3 thiazol-5 yl]-2 pyridyl]phenylacetamide] it was 118 to 120 °C; in that of `CCCCc1nc(-c2cccc(C)c2)c(-c2ccnc(NC(=O)Cc3ccccc3)c2)s1` [D 15-4, N-[4-[2-butyl-4-(3-methylphenyl)-1,3-thiazol-5-yl]-2-pyridyl]phenylacetamide], 92 to 93 °C. In the case of `CCCc1nc(-c2cccc(C)c2)c(-c2ccnc(NC(=O)CCc3ccccc3)c2)s1` [D 16-8, N-[4-[4-(3-methylphenyl)-2-propyl-1,3-thiazol-5-yl]-2-pyridyl]-3-phenylpropionamide] it was 103 to 104 °C; in that of `Cc1cccc(-c2nc(-c3ccc(F)cc3)sc2-c2ccnc(NC(=O)c3ccccc3)c2)c1` [D 16-11, N-[4-[2-(4-fluorophenyl)-4-(3-methylphenyl)-1,3-thiazol-5-yl]-2-pyridyl]benzamide], 126 to 128 °C; in that of `Cc1cccc(-c2nc(-c3ccc(F)cc3)sc2-c2ccnc(NC(=O)CCc3ccccc3)c2)c1` [D 16-12, N-[4-[2-(4-fluorophenyl)-4-(3-methylphenyl)-1,3-thiazol-5-yl]-2-pyridyl]-3-phenylpropionamide], 169 to 171 °C.

`Cc1cccc(-c2nc(-c3ccccc3Cl)sc2-c2ccnc(NC(=O)c3ccccc3)c2)c1` [D 16-13, N-[4 [2 (2 chlorophenyl)-4 (3 methylphenyl)-1,3 thiazol-5 yl]-2 pyridyl]benzamide]: the melting point lay within 138 to 140 °C. Next, `Cc1cccc(-c2nc(-c3ccccc3Cl)sc2-c2ccnc(NC(=O)CCc3ccccc3)c2)c1` [D 16-14, N-[4 [2 (2 chlorophenyl)-4 (3 methylphenyl)-1,3 thiazol-5 yl]-2 pyridyl]-3-phenylpropionamide]: 156 to 158 °C; `CSc1ccc(-c2nc(-c3cccc(C)c3)c(-c3ccnc(NC(=O)c4ccccc4)c3)s2)cc1` [D 16-15, N-[4-[4-(3-methylphenyl)-2-(4-methylthiophenyl)-1,3-thiazol-5-yl]-2-pyridyl]benzamide]: 180 to 182 °C. Turning to `CSc1ccc(-c2nc(-c3cccc(C)c3)c(-c3ccnc(NC(=O)CCc4ccccc4)c3)s2)cc1` [D 16-16, N-[4-[4-(3-methylphenyl)-2-(4-methylthiophenyl)-1,3-thiazol-5-yl]-2-pyridyl]-3-phenylpropionamide], the melting point lay in the range of 174 to 175 °C. Next, `CSc1ccc(-c2nc(-c3cccc(C)c3)c(-c3ccnc(NC(=O)c4cccs4)c3)s2)cc1` [D 16-17, N-[4 [4 (3 methylphenyl)-2 (4 methylthiophenyl)-1,3 thiazol-5 yl]-2 pyridyl]-2-thiophenecarboxamide]: 145 to 147 °C; `CSc1ccc(-c2nc(-c3cccc(C)c3)c(-c3ccnc(NC(=O)c4ccc5ccccc5c4)c3)s2)cc1` [D 16-18, N-[4 [4 (3 methylphenyl)-2 (4 methylthiophenyl)-1,3 thiazol-5 yl]-2 pyridyl]-2-naphthamide]: 184 to 186 °C; `COc1ccc(-c2nc(C)sc2-c2ccnc(NCc3ccccc3)c2)cc1` [D 19-1, N-benzyl-N-[4 [4 (4 methoxyphenyl)-2 methyl-1,3 thiazol-5 yl]-2 pyridyl]amine]: 132 to 133 °C.

For `Cc1cccc(-c2nc(-c3ccc(F)cc3)sc2-c2ccnc(NCc3ccccc3)c2)c1` [D 19-11, N-benzyl-N-[4 [2 (4-fluorophenyl)-4 (3 methylphenyl)-1,3 thiazol-5 yl]-2-pyridyl]amine], the melting point was 143 to 146 °C. On to `Cc1cccc(-c2nc(-c3ccc(F)cc3)sc2-c2ccnc(NCCc3ccccc3)c2)c1` [D 19-12, N-[4 [2 (4 fluorophenyl)-4 (3 methylphenyl)-1,3 thiazol-5 yl]-2 pyridyl]-N-(2-phenylethyl)amine], for which the melting point fell in the range of 97 to 98 °C.

Take `Cc1cccc(-c2nc(-c3ccccc3Cl)sc2-c2ccnc(NCc3ccccc3)c2)c1` [D 19-14, N-benzyl-N-[4 [2 (2-chlorophenyl)-4 (3 methylphenyl)-1,3 thiazol-5 yl]-2-pyridyl]amine]: the melting point was in the range of 84 to 88 °C. Next, `Cc1cccc(-c2nc(-c3ccccc3Cl)sc2-c2ccnc(NCCc3ccccc3)c2)c1` [D 19-15, N-[4 [2 (2 chlorophenyl)-4 (3 methylphenyl)-1,3 thiazol-5 yl]-2 pyridyl]-N-(2-phenylethyl)amine]: 113 to 114 °C. Next, `Cc1cccc(-c2nc(-c3ccccc3Cl)sc2-c2ccnc(NCCCc3ccccc3)c2)c1` [D 19-16, N-[4 [2 (2 chlorophenyl)-4 (3 methylphenyl)-1,3 thiazol-5 yl]-2 pyridyl]-N-(3-phenylpropyl)amine]: 101 to 102 °C; `CSc1ccc(-c2nc(-c3cccc(C)c3)c(-c3ccnc(NCc4ccccc4)c3)s2)cc1` [D 19-17, N-benzyl-N-[4-[4-(3-methylphenyl)-2-(4-methylthiophenyl)-1,3-thiazol-5-yl]-2-pyridyl]amine]: 134 to 136 °C.
